Experimental data: article PMC4029172 (eLife, 2014)
In brackets after ≈: the same amount, converted by molar mass. Numbered stars: 1 amine (or outer) side, 2 acyl side, 3 side chain; on linkers, the order of the positions; unused ones are H or OH. Bridge positions count the residues as written; N and C are the ends. Square brackets hold non-standard residues; d marks the D form. Peptide text beside a SMILES is read from it. * marks the point of attachment. X5 = C[C@@H](Oc1ccc([C@H](N[*:1])C(=O)[*:2])cc1)[C@](O)(/C=C/C(=O)[*:3])CBr; X4 = CC(Oc1ccc(C(N[*:1])C(=O)[*:2])cc1)C(O)(C=CC(=O)[*:3])CCl; Pentanoyl(2R-Me,3R-OH,4-Me) = CC(C)[C@@H](O)[C@@H](C)C(=O)*; d(aIle) = CC[C@H](C)[C@@H](N)C(=O)O; d(aThr) = C[C@@H](O)[C@@H](N)C(=O)O; NMeF = CN[CH](Cc1ccccc1)C(=O)O; X3 = CC(C)C(O)C(C)C(=O)*

What was measured:
[1] = test system: Bacillus anthracis Vollum 1B; assay: microbe, parasite or virus in culture; type: cell-based; details: VOLLUM1B
[2] = test system: Neisseria gonorrhoeae ATCC 19424; assay: microbe, parasite or virus in culture; type: cell-based; details: ATCC19424
Burkholderia mallei CHN7 = assay: microbe, parasite or virus in culture; type: cell-based
[3] = test system: Pseudomonas aeruginosa ATCC 10145; assay: microbe, parasite or virus in culture; type: cell-based; details: ATCC10145
Yersinia pestis CO92 = assay: microbe, parasite or virus in culture; type: cell-based
[4] = molecular target: Staphylococcus aureus RNAP (Staphylococcus aureus, UniProt Q5HID2+Q5HID3); assay: biochemical
Escherichia coli RNAP = Escherichia coli RNAP (Escherichia coli, UniProt P0A8T7+P0A8V2); assay: biochemical
Chain of Escherichia coli RNAP (P0A8V2 whole entry): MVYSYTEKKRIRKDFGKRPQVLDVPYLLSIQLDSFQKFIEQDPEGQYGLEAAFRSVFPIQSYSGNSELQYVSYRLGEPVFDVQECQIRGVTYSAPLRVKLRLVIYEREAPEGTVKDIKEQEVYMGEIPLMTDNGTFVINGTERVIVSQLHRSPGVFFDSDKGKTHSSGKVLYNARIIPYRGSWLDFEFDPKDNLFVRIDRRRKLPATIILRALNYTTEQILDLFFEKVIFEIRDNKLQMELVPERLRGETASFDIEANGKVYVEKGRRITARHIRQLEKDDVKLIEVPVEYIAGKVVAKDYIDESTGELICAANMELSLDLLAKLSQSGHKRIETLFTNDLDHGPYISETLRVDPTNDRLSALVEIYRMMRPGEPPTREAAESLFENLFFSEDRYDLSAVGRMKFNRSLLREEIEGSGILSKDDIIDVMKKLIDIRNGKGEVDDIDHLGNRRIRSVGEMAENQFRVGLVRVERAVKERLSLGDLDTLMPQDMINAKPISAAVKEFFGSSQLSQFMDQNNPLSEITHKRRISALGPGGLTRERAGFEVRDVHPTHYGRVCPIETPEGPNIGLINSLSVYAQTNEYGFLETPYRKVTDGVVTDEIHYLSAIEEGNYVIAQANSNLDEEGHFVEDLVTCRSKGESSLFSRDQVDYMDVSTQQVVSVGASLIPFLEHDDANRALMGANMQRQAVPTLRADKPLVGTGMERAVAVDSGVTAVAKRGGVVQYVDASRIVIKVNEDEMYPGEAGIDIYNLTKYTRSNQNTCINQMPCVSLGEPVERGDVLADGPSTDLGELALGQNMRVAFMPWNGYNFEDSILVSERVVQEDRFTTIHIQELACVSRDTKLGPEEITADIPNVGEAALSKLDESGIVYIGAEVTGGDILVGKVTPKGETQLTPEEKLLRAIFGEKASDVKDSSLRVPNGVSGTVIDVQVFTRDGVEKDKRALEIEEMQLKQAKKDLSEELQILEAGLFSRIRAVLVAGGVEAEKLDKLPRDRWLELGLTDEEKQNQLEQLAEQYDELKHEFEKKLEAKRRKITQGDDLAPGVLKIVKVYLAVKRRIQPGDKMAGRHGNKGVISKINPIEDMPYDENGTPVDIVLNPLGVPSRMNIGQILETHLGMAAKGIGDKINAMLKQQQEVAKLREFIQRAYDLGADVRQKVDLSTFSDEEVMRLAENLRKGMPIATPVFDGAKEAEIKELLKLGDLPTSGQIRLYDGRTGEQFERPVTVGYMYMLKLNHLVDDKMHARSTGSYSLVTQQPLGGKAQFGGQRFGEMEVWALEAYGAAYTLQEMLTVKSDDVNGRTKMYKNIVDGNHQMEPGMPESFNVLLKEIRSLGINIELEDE
Chain of Escherichia coli RNAP (P00579 whole entry, further chain): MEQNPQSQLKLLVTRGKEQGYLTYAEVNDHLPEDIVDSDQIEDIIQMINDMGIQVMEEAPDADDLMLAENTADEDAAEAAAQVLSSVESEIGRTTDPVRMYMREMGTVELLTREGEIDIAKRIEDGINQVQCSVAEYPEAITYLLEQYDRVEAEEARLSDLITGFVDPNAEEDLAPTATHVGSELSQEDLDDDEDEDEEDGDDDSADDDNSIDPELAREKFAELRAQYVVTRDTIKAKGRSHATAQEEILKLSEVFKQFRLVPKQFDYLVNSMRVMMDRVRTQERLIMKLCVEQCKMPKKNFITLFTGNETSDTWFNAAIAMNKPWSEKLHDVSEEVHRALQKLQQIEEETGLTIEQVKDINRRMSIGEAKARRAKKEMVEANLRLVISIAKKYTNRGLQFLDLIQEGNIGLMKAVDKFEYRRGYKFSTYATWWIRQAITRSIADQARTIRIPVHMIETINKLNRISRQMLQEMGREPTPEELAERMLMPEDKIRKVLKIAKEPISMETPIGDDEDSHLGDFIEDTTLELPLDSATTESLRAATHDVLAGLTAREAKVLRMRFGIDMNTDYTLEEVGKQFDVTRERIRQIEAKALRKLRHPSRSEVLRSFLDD
Chain of Escherichia coli RNAP (P0A8T7 whole entry): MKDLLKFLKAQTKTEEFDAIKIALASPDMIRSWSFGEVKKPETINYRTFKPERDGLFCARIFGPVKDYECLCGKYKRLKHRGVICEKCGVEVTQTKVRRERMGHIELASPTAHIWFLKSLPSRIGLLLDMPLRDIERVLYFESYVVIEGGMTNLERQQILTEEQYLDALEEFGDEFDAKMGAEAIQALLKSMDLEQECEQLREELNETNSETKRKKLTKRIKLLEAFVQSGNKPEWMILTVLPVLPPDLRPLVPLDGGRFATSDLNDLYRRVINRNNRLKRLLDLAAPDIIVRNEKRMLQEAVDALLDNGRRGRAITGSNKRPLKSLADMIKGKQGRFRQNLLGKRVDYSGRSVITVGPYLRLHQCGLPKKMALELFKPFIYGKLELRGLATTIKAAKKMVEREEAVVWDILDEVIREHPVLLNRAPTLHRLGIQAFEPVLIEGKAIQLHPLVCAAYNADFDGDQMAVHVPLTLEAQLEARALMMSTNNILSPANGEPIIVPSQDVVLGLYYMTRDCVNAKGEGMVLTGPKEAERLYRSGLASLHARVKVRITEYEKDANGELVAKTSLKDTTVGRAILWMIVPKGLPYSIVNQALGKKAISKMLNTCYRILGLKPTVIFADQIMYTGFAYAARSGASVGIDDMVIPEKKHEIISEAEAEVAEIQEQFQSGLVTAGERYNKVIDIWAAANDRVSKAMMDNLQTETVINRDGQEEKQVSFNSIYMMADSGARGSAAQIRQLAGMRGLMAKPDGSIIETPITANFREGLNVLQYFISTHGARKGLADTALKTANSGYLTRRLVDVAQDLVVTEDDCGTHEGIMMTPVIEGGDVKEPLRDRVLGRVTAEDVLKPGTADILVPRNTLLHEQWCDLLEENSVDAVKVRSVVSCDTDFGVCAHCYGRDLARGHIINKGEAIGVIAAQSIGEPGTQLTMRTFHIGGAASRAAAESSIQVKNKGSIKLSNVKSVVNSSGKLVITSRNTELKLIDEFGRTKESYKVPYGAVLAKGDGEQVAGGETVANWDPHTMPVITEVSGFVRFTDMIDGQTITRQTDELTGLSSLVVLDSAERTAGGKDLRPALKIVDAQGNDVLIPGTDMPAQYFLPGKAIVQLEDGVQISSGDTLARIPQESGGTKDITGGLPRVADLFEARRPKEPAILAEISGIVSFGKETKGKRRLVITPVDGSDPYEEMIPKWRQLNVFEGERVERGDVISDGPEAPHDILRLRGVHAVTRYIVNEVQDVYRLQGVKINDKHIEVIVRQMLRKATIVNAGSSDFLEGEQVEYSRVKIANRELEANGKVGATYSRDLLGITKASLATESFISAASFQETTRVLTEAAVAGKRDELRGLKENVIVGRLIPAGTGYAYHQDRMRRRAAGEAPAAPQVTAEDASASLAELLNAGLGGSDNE
Chain of Escherichia coli RNAP (P0A7Z4 whole entry, further chain): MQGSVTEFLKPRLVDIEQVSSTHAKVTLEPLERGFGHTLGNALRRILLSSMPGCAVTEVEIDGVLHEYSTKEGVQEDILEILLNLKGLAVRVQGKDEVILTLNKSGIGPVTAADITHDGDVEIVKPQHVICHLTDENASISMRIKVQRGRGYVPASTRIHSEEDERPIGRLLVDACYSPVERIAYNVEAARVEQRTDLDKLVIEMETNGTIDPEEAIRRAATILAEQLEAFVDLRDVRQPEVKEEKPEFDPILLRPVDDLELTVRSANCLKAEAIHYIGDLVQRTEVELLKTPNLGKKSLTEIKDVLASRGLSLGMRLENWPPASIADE
Chain of Escherichia coli RNAP (P0A800 whole entry, further chain): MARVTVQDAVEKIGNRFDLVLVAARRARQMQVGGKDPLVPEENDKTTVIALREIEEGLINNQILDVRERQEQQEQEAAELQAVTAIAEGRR

[5] = test system: E. coli D21f2tolC spontaneous Sal-resistant mutants; assay: Resistance levels of spontaneous Sal-resistant mutants; type: cell-based, Escherichia coli; details: for resistance level, all mutants: all 21 spontaneous Sal-resistant substitutions
[6] = test system: E. coli D21f2tolC plasmid-borne induced Sal-resistant mutants
[7] = test system: Enterobacter cloacae ATCC 13047; assay: microbe, parasite or virus in culture; type: cell-based; details: ATCC13047
[8] = test system: Haemophilus influenzae ATCC 49247; assay: microbe, parasite or virus in culture; type: cell-based; details: ATCC49247
[9] = test system: Moraxella catarrhalis ATCC 25238; assay: microbe, parasite or virus in culture; type: cell-based; details: ATCC25238
[10] = molecular target: Thermus thermophilus RNAP (Thermus thermophilus, UniProt Q8RQE8+Q8RQE9); assay: biochemical
[11] = test system: E. coli D21f2tolC Sal-resistant mutants; assay: Cross-resistance levels of Sal-resistant mutants; type: cell-based, Escherichia coli; details: wild-type reference of Figure 4B
[12] = test system: E. coli D21f2tolC Rif-, Stl-, CBR703-, Myx- and Lpm-resistant mutants; assay: Cross-resistance levels of Rif-, Stl-, CBR703-, Myx- and Lpm-resistant mutants; type: cell-based, Escherichia coli; details: wild-type reference of Figure 4C
E. coli D21f2tolC [13] = assay: Frequency of spontaneous Sal-resistant mutants; type: cell-based, Escherichia coli; details: E. coli D21f2tolC plated on agar containing Sal; listed as Sal
E. coli RNAP holoenzyme [14] = molecular target: T1, E. coli RNAP holoenzyme (Escherichia coli, UniProt P0A8T7+P0A8V2); assay: biochemical
E. coli D21f2tolC [15] = assay: Macromolecular synthesis in bacterial cells in culture; type: cell-based, Escherichia coli; details: 2 x MIC; 0-30 min
Description: Macromolecular synthesis assays were performed essentially as in [Cotsonas King and Wu, 2009]. E. coli D21f2tolC ([Fralick and Burns-Keliher, 1994]) was cultured in 10 ml LB broth ([Sambrook and Russell, 2001]) at 37°C with shaking until OD600 = 0.4–0.8, and cultures were diluted with LB broth to OD600 = 0.167. Aliquots (90 µl) were dispensed into wells of a 96-well plate; were supplemented with 7 µl of pre-warmed 4 µCi/ml [^14C]-thymidine, 10 µCi/ml [^14C]-uracil, or 30 µCi/ml [^14C]-amino acid mix (PerkinElmer, Waltham, MA); were incubated 10 min at 37°C with shaking; were supplemented with 3 µl 3.3 µg/ml SalA in methanol (final concentration = 2 × MIC), 3 µl 13 µg/ml Rif in methanol (final concentration = 2 × MIC), or 3 µl solvent blank; and incubated at 37°C with shaking. At time points 0, 10, 20, and 30 min after the addition of SalA, Rif, or solvent blank, rows of samples were transferred to a second 96-well plate, containing 100 µl ice-cold 10% trichloroacetic acid (TCA) in each well, and the second plate was incubated on ice. 1 hr after the final time point, TCA precipitates were collected by filtration onto glass-fiber filters (Filtermat A; PerkinElmer; pre-rinsed twice with 5% TCA), washed with 2 × ∼300 µl 5% TCA, washed with 3 × ∼300 µl water, and washed with 2 × ∼300 µl 10% ethanol, using a Packard FilterMate 196 Cell Harvester with Matrix Filter upper head assembly (PerkinElmer). Filters were dried under a heat lamp, wrapped in a single layer of plastic wrap, and exposed to a storage phosphor screen for 18–19 hr, and analyzed by storage-phosphor scanning (Typhoon; GE Healthcare).

E. coli RNAP holoenzyme [16] = molecular target: T1, E. coli RNAP holoenzyme; type: biochemical
E. coli RNAP holoenzyme [17] = molecular target: T1, E. coli RNAP holoenzyme; type: biochemical; remark: listed apart in the source
E. coli RNAP holoenzyme [18] = molecular target: T1, E. coli RNAP holoenzyme; type: biochemical; remark: listed apart in the source
E. coli RNAP holoenzyme [19] = molecular target: T1, E. coli RNAP holoenzyme; type: biochemical; remark: listed apart in the source
E. coli RNAP core enzyme = type: biochemical, Escherichia coli
[20] = test system: wild-type or ΔTL E. coli RNAP core enzyme; type: biochemical, Escherichia coli
E. coli D21f2tolC [21] = assay: Resistance rates (fluctuation assays); details: each agent at 2 × MIC

For `CCC(C)C1NC(=O)C(NC(=O)C(C)C(O)C(C)C)C(C)OC(=O)C2COC(=O)CNC(=O)C=CC(O)(CCl)C(C)Oc3ccc(cc3)C(NC1=O)C(=O)N(C)C(Cc1ccccc1)C(=O)NC(C(C)O)C(=O)N2` (stereo not shown) [SalB, salinamide B] (X3-TI[X4][NMeF]TS; ester 1-C; linker 3-6 via G; configuration not given here), the MIC [1] was over 50 µg/mL, the MIC [2] was 25 µg/mL (≈ 23.7 µM) and the MIC (Burkholderia mallei CHN7) was 50 µg/mL (≈ 47.3 µM). The MIC [3] was over 50 µg/mL, the MIC (Yersinia pestis CO92) was over 50 µg/mL and the IC50 [4] was 800 nM. The IC50 (Escherichia coli RNAP) was 500 nM, the “resistance level, all mutants” value [5] was at least 16 fold and the MICwild-type [6] was 0.20 µg/mL.
Compound `CC[C@@H](C)[C@@H]1NC(=O)[C@H](NC(=O)[C@@H](C)[C@@H](O)C(C)C)[C@H](C)OC(=O)[C@H]2COC(=O)CNC(=O)/C=C/[C@@]3(CO3)[C@H](C)Oc3ccc(cc3)[C@H](NC1=O)C(=O)N(C)[C@H](Cc1ccccc1)C(=O)N[C@@H]([C@H](C)O)C(=O)N2` [SalA, Salinamide A] has an MIC [1] of 25 µg/mL (≈ 24.5 µM), an MIC [7] of 1.56 µg/mL (≈ 1.53 µM) and an MIC [8] of 6.25 µg/mL (≈ 6.13 µM). It also gave an MIC [2] of 25 µg/mL (≈ 24.5 µM), an MIC (Burkholderia mallei CHN7) of 25 µg/mL (≈ 24.5 µM) and an MIC [3] of 50 µg/mL (≈ 49 µM). It also gave an MIC [9] of 50 µg/mL (≈ 49 µM), an MIC (Yersinia pestis CO92) of 50 µg/mL (≈ 49 µM) and an IC50 [4] of 200 nM. For the same compound, the IC50 (Escherichia coli RNAP) was 200 nM, the IC50 [10] was over 100000 nM and the “resistance level, all mutants” value [5] was at least 16 fold. For the same compound, the “resistance level, nine high-level mutants” value ([5]; {}) was at least 128 fold, the MICwild-type [11] was 0.049 µg/mL and the MICwild-type [12] was 0.049 µg/mL. The “frequency of spontaneous mutation to Sal-resistance” value (E. coli D21f2tolC [13]) was ~1 × 10^−9, the Ki (E. coli RNAP holoenzyme [14]) was 200 nM and the mode of inhibition (E. coli RNAP holoenzyme [14]) was “noncompetitive”. The “effect on DNA synthesis ([14C]-thymidine incorporation)” value (E. coli D21f2tolC [15]) was “no effect on DNA synthesis”, the “effect on RNA synthesis ([14C]-uracil incorporation)” value (E. coli D21f2tolC [15]) was “inhibits RNA synthesis at the first time point following addition” and the “effect on protein synthesis ([14C]-amino acids incorporation)” value (E. coli D21f2tolC [15]) was “inhibits protein synthesis at later time points”. The “effect on formation of RNAP-promoter open complex (RPo)” value (E. coli RNAP holoenzyme [16]) was “does not inhibit formation of a heparin-resistant RNAP-promoter open complex”, the “effect on nucleotide addition in primer-dependent transcription initiation” value (E. coli RNAP holoenzyme [17]) was “inhibits all nucleotide-addition steps” and the “effect on nucleotide addition in de novo transcription initiation” value (E. coli RNAP holoenzyme [18]) was “inhibits all nucleotide-addition steps”. For the same compound, the “effect on nucleotide addition in transcription elongation” value (“effect … in transcription elongation” for short) (E. coli RNAP holoenzyme [19]) was “inhibits nucleotide addition in transcription elongation”, the effect on pyrophosphorolysis (E. coli RNAP core enzyme) was “inhibits not only the forward reaction of nucleotide addition but also the reverse reaction, pyrophosphorolysis” and the “requirement of RNAP trigger loop for inhibition” value [20] was “does not require the RNAP active-center subregion referred to as the ‘trigger loop’”. For the same compound, the MICwild-type [6] was 0.049 µg/mL and the “resistance rate (per generation)” value (E. coli D21f2tolC [21]; listed as Sal) was 2 × 10^−9 per generation.
For `ONC(=Nc1ccccc1)c1cccc(C(F)(F)F)c1` [CBR703], the MICwild-type [11] was 6.25 µg/mL and the MICwild-type [12] was 6.25 µg/mL.
With myxopyronin the MICwild-type [11] was 0.20 µg/mL, the MICwild-type [12] was 0.20 µg/mL and the “effect … in transcription elongation” value (E. coli RNAP holoenzyme [19]) was “do not inhibit transcription elongation”. The “resistance rate (per generation)” value (E. coli D21f2tolC [21]) was 3 × 10^−10 per generation.
`CNC(=O)[C@@H](C)[C@H]1C(=O)/C(=C(O)/C=C/C(C)=C/[C@@H](C)[C@H]2O[C@@]3(C)O[C@H](C=C[C@@]34CO4)[C@@H]2C)C(=O)N1[C@@H]1CC[C@H](O)[C@H](C)O1` [Stl, streptolydigin] was tested, and the MICwild-type [11] was 3.13 µg/mL and the MICwild-type [12] was 1.56 µg/mL.
lipiarmycin [Lpm] was tested, and the MICwild-type [11] was 1.56 µg/mL, the MICwild-type [12] was 1.56 µg/mL and the “effect … in transcription elongation” value (E. coli RNAP holoenzyme [19]) was “do not inhibit transcription elongation”.
`CO[C@H]1/C=C/O[C@@]2(C)Oc3c(C)c(O)c4c(O)c(c(/C=N/N5CCN(C)CC5)c(O)c4c3C2=O)NC(=O)/C(C)=C\C=C\[C@H](C)[C@H](O)[C@@H](C)[C@@H](O)[C@@H](C)[C@H](OC(C)=O)[C@@H]1C` [Rif, rifampin] was tested, and the MICwild-type [11] was 0.20 µg/mL, the MICwild-type [12] was 0.20 µg/mL and the “effect on nucleotide addition in primer-dependent transcription initiation” value (E. coli RNAP holoenzyme [17]) was “does not inhibit the first nucleotide-addition step”. For the same compound, the “effect … in transcription elongation” value (E. coli RNAP holoenzyme [19]) was “do not inhibit transcription elongation”.
`CC[C@H](C)[C@H]1NC(=O)[C@@H](NC(=O)[C@H](C)[C@H](O)C(C)C)[C@@H](C)OC(=O)[C@@H]2COC(=O)CNC(=O)/C=C/[C@](O)(CBr)[C@@H](C)Oc3ccc(cc3)[C@H](NC1=O)C(=O)N(C)[C@@H](Cc1ccccc1)C(=O)N[C@H]([C@@H](C)O)C(=O)N2` [Sal-Br] ({Pentanoyl(2R-Me,3R-OH,4-Me)}-T[d(aIle)][X5][NMeF][d(aThr)]S; ester 1-C; linker 3-6 via G) showed an MIC [7] of 3.13 µg/mL (≈ 2.84 µM), an MIC [8] of 6.25 µg/mL (≈ 5.68 µM) and an MIC [2] of 25 µg/mL (≈ 22.7 µM). The IC50 [4] was 700 nM and the IC50 (Escherichia coli RNAP) was 900 nM.
